# Reference: ChEMBL document CHEMBL3045309, “Synthesis and cardiovascular activity of difluro-substituted hexahydroquinoline” (2008)
# Tests used:
# Thoracic artery = experiment: Inhibition of potassium chloride-induced contraction in Rattus norvegicus albino (rat) thoracic artery at 10^-5 mol/l after 10 min; type: functional
# Ileum = experiment: Inhibition of barium chloride-induced contraction inRattus norvegicus albino (rat) ileum at 10^-5 mol/l after 10 min; type: functional
SMILES,inhibition at 10 µM (Thoracic artery) [%],inhibition at 10 µM (Ileum) [%]
COC(=O)C1=C(C)NC2=C(C(=O)C(C)(C)CC2)C1c1c(F)cccc1F (stereo unspecified),23.6,79.4
CCOC(=O)C1=C(C)NC2=C(C(=O)C(C)(C)CC2)C1c1cc(F)ccc1F (stereo unspecified),21.4,86.8
COC(=O)C1=C(C)NC2=C(C(=O)CC(C)(C)C2)C1c1c(F)cccc1F (stereo unspecified),–,74.6
CCN(CC)C(=O)C1=C(C)NC2=C(C(=O)C(C)(C)CC2)C1c1cccc(F)c1F (stereo unspecified),37,54.2
CCN(CC)C(=O)C1=C(C)NC2=C(C(=O)CC(C)(C)C2)C1c1cccc(F)c1F (stereo unspecified),31.5,51.3
COC(=O)C1=C(C)NC(C)=C(C(=O)OCCN(C)Cc2ccccc2)C1c1cccc([N+](=O)[O-])c1 (stereo unspecified) [NICARDIPINE],15.9,70
